Test systems include EKVX NSCLC; HCT-15 colon; HOP-62 NSCLC; HT29 colon; OVCAR-4 ovarian; OVCAR-8 ovarian; SK-MEL-28 melanoma; SK-OV-3 ovarian; SR leukemia; UACC-62 melanoma.
Common to all, as to assay: inhibition of tumour cell growth, NCI panel, 48 h

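Growth conditions: 96-well plates. Treatment: test compound, 48 hours, 5 concentrations. Analysis: linear interpolation between bracketing concentrations; unreached endpoints set to highest concentration. GI50 is the concentration that inhibits growth by half. At the TGI there is no net growth.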 Where only a bound is given, the exact number is not on record here.

Regarding `O=C1c2cc(-c3ccccc3)ccc2-c2c1c1ccc([N+](=O)[O-])cc1c(=O)n2CCCBr`, the GI50 with EKVX NSCLC is > 50 µM; in the assay with HCT-15 colon, > 50 µM; in the assay with HOP-62 NSCLC it was > 30.2 µM; in the assay with HT29 colon, > 50 µM; in the assay with OVCAR-4 ovarian, > 50 µM; in the assay with OVCAR-8 ovarian it was > 50 µM. For the same molecule, the GI50 in the assay on SK-MEL-28 melanoma was > 50 µM; with SK-OV-3 ovarian it was 33.1 µM; in the assay on UACC-62 melanoma, 49.4 µM. The TGI in the assay on EKVX NSCLC, in the assay with HCT-15 colon, with HOP-62 NSCLC, with HT29 colon, with OVCAR-4 ovarian and in the assay on OVCAR-8 ovarian was > 50 µM each time. For the same molecule, the TGI is > 50 µM in the assay on SK-MEL-28 melanoma, > 50 µM with SK-OV-3 ovarian, > 15.1 µM with SR leukemia and > 50 µM in the assay on UACC-62 melanoma.
For the molecule `COc1cc(F)cc([C@@H](CO)NC(=O)[C@@H](C)N2Cc3ccc(-c4nc(NC5CCOCC5)ncc4Cl)cc3C2=O)c1`, the GI50 in the assay on EKVX NSCLC is 0.108 µM; in the assay with HCT-15 colon it was 6.08 µM; in the assay with HOP-62 NSCLC, 0.0519 µM; in the assay on HT29 colon, < 0.01 µM; in the assay with OVCAR-4 ovarian it was 7.91 µM; in the assay on OVCAR-8 ovarian, 13.6 µM. Besides, the GI50 in the assay on SK-MEL-28 melanoma was < 0.01 µM; in the assay on SK-OV-3 ovarian it was 3.25 µM; with SR leukemia, 10.8 µM; with UACC-62 melanoma, < 0.01 µM. Moreover, the TGI in the assay on EKVX NSCLC was 66 µM; with HCT-15 colon, > 86.7 µM; with HOP-62 NSCLC, > 86.2 µM; with HT29 colon it was > 54.2 µM; with OVCAR-4 ovarian, > 91.6 µM; in the assay with OVCAR-8 ovarian it was 64.8 µM. Further, the TGI with SK-MEL-28 melanoma was 0.0318 µM; in the assay on SK-OV-3 ovarian, > 100 µM; in the assay with SR leukemia it was 70.7 µM; with UACC-62 melanoma, 0.0248 µM.
For `CCOC(=O)[C@H]1CSC[C@@H](C(=O)OC)N1`, the TGI with EKVX NSCLC, in the assay on HCT-15 colon, in the assay on HOP-62 NSCLC, in the assay with HT29 colon, in the assay on OVCAR-4 ovarian and in the assay on OVCAR-8 ovarian was > 100 µM in each case. Also, the TGI in the assay on SK-MEL-28 melanoma, in the assay on SK-OV-3 ovarian, in the assay on SR leukemia and with UACC-62 melanoma was > 100 µM throughout.
Turning to `COC(=O)[C@@]1(O)CC(C)C=C1C=O` (some centres undefined), the TGI with EKVX NSCLC was > 100 µM; in the assay with HCT-15 colon, 33.1 µM; in the assay with HOP-62 NSCLC it was > 100 µM; in the assay with HT29 colon it was > 100 µM; in the assay on OVCAR-4 ovarian, > 100 µM; in the assay on OVCAR-8 ovarian it was > 100 µM. Also, the TGI in the assay with SK-MEL-28 melanoma, in the assay with SK-OV-3 ovarian, in the assay with SR leukemia and in the assay on UACC-62 melanoma was > 100 µM throughout.
Regarding `COc1ccc(-c2nnc(-c3c(C)n(C)n(-c4ccccc4)c3=O)o2)cc1`, the TGI in the assay on EKVX NSCLC, in the assay on HCT-15 colon, in the assay on HOP-62 NSCLC, in the assay with HT29 colon, in the assay on OVCAR-4 ovarian and in the assay on OVCAR-8 ovarian was > 100 µM in each case. Also, the TGI with SK-MEL-28 melanoma, with SK-OV-3 ovarian, with SR leukemia and in the assay on UACC-62 melanoma was > 100 µM each time.
Turning to `C[C@@H](NC(=O)[C@@H](CC(=O)N1CCC(N2CCCCC2)CC1)N1C(=O)[C@@H](N2C(=O)OC[C@@H]2c2ccccc2)[C@H]1/C=C/c1cccc(Cl)c1)c1ccccc1`, the GI50 in the assay on EKVX NSCLC was 3.79 µM; in the assay with HCT-15 colon it was 2.56 µM; with HOP-62 NSCLC it was 4.16 µM; in the assay with HT29 colon it was 2.78 µM; with OVCAR-4 ovarian, 10.5 µM; in the assay on OVCAR-8 ovarian, 4.3 µM. For the same molecule, the GI50 with SK-MEL-28 melanoma is 1.8 µM; in the assay with SK-OV-3 ovarian, 12.9 µM; in the assay with SR leukemia it was 2.61 µM; with UACC-62 melanoma, 1.95 µM. Also, the TGI in the assay with EKVX NSCLC was 18 µM; in the assay with HCT-15 colon, 7.74 µM; in the assay with HOP-62 NSCLC it was 18.4 µM; in the assay on HT29 colon, 7.95 µM; in the assay on OVCAR-4 ovarian it was 24.8 µM; in the assay with OVCAR-8 ovarian, 16.6 µM. Further, the TGI with SK-MEL-28 melanoma amounted to 3.63 µM; with SK-OV-3 ovarian it was 27.5 µM; in the assay on SR leukemia it was 7.78 µM; in the assay on UACC-62 melanoma, 3.88 µM.
For `CCC(=O)C(C)C(=O)C(=O)C(=O)OC` (centres undefined), the TGI with EKVX NSCLC, with HCT-15 colon, in the assay with HOP-62 NSCLC, in the assay on HT29 colon, in the assay on OVCAR-4 ovarian and in the assay with OVCAR-8 ovarian was > 100 µM each time. Also, the TGI in the assay with SK-MEL-28 melanoma, in the assay on SK-OV-3 ovarian, with SR leukemia and with UACC-62 melanoma was > 100 µM each time.
With `Clc1cccc(N2CCN(CCN3CCc4c([nH]c5ccccc45)C3c3cccnc3)CC2)c1` (centres undefined), the TGI in the assay on EKVX NSCLC was 99.7 µM; in the assay with HCT-15 colon it was > 100 µM; in the assay with HOP-62 NSCLC it was > 86.8 µM; in the assay with HT29 colon it was > 80.4 µM; with OVCAR-4 ovarian, > 100 µM; in the assay with OVCAR-8 ovarian it was > 100 µM. The TGI with SK-MEL-28 melanoma, with SK-OV-3 ovarian, in the assay on SR leukemia and in the assay with UACC-62 melanoma was > 100 µM each time.
As to `CN(C(=O)C12C3(C(=O)C(C)(C)C)C4C5(C#N)C3C1(C(=O)C(C)(C)C)C5C42C(=O)C(C)(C)C)C(C)(C)C` (centres undefined), the TGI in the assay with EKVX NSCLC, in the assay with HCT-15 colon, in the assay with HOP-62 NSCLC, in the assay on HT29 colon, in the assay with OVCAR-4 ovarian and in the assay with OVCAR-8 ovarian was > 50 µM in each case. The TGI in the assay with SK-MEL-28 melanoma, in the assay on SK-OV-3 ovarian, in the assay on SR leukemia and in the assay on UACC-62 melanoma was > 50 µM each time.
On to `Cn1c(/C=C(\C#N)c2cccc(C(F)(F)F)c2)nc2c(N3CCOCC3)nc(Cl)nc21`, for which the GI50 is 1.21 µM with EKVX NSCLC; 0.221 µM in the assay with HCT-15 colon; 1.45 µM with HOP-62 NSCLC; 0.369 µM in the assay with HT29 colon; 1 µM in the assay on OVCAR-4 ovarian; 0.567 µM with OVCAR-8 ovarian. The GI50 with SK-MEL-28 melanoma was 1.48 µM; in the assay with SK-OV-3 ovarian, 3.7 µM; with SR leukemia, 0.337 µM; with UACC-62 melanoma, 0.973 µM. Also, the TGI in the assay with EKVX NSCLC was 2.73 µM; with HCT-15 colon it was 0.61 µM; in the assay on HOP-62 NSCLC it was 3.2 µM; in the assay on HT29 colon, 1.38 µM; in the assay with OVCAR-4 ovarian, 2.41 µM; in the assay with OVCAR-8 ovarian, 2.16 µM. Further, the TGI was found to be 2.86 µM in the assay on SK-MEL-28 melanoma, 14.5 µM in the assay on SK-OV-3 ovarian, 1.86 µM in the assay on SR leukemia and 2.28 µM in the assay on UACC-62 melanoma.

For the origin of these results see PubChem BioAssay (NCI).
